According to patent US20250122183A1 (Pfizer Inc., priority 2023, published 2025):

Tests used:
KAT6A Full length enzyme = KAT6A Full length enzyme (Homo sapiens (Human), UniProt Q92794); test: KAT6A assay (SAMDI-MS acetylation of H3 1-21 peptide); format: biochemical; conditions: Morrison equation fit; replicate number in parentheses; read-out: KAT6A Ki (nM) (replicate number)
[1] = target: KAT7+JADE1+EAF6+ING5 4 protein complex (Homo sapiens (Human), UniProt O95251); test: KAT7 JADE1 assay (SAMDI-MS acetylation of H3 1-21 peptide); format: biochemical; conditions: Morrison equation fit; replicate number in parentheses; read-out: KAT7 JADE1 Ki (nM) (replicate number)

KAT6A Full length enzyme, sequence (Q92794 other isoform, or with tags, fused parts or gaps): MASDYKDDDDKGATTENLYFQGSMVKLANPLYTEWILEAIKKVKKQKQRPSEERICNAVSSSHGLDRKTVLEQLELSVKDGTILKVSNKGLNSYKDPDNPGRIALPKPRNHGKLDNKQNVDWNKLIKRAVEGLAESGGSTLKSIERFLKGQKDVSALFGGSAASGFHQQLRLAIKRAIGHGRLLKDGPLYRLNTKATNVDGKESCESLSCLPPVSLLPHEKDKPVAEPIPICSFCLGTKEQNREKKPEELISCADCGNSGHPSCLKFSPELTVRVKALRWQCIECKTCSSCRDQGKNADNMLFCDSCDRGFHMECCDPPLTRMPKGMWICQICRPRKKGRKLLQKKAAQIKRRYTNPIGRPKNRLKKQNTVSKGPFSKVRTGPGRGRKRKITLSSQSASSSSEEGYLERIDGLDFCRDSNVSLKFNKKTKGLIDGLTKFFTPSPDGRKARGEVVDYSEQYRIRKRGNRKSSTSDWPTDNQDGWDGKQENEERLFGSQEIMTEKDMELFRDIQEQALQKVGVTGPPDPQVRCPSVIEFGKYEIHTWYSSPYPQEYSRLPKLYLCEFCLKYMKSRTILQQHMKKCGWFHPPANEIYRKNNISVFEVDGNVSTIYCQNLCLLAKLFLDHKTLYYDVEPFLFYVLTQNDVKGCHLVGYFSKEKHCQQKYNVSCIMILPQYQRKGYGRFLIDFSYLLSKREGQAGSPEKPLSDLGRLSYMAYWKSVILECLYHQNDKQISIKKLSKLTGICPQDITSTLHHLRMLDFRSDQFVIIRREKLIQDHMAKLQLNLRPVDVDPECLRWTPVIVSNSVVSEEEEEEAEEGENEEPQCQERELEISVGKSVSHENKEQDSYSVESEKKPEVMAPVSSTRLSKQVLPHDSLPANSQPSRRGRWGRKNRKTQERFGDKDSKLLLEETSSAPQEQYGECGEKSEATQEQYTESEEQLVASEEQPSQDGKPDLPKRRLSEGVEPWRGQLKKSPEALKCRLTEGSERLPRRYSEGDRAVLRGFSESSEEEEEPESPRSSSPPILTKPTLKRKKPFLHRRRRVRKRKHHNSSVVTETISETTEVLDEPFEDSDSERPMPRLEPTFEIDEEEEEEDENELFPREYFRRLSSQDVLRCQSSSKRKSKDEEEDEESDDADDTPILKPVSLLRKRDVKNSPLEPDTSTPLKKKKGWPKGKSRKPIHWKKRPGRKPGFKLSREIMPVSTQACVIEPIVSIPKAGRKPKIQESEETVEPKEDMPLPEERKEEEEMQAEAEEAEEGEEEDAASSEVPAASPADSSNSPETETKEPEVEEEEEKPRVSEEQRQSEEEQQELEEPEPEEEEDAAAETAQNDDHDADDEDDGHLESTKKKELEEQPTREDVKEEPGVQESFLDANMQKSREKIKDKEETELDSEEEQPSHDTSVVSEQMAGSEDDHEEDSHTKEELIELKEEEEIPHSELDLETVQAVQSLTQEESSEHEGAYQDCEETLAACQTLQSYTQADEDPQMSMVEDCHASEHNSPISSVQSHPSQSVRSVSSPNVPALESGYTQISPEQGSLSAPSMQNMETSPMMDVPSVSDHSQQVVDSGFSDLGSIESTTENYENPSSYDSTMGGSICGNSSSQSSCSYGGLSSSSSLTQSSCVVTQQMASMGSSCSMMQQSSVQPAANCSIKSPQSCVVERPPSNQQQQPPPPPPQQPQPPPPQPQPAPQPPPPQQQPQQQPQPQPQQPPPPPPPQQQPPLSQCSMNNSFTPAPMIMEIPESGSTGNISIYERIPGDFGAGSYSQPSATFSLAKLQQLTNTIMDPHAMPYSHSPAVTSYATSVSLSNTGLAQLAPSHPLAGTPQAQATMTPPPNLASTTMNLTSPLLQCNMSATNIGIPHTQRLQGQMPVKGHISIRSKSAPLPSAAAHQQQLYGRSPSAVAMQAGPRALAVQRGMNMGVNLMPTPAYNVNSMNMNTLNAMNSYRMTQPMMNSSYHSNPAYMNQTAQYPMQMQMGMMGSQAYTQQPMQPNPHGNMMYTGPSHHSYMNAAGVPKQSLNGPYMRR

Row | Structure (SMILES) | Ki (KAT6A Full length enzyme) [nM] | Ki [1] [nM]
1 | COc1cc2c(NS(=O)(=O)c3c(OC)cc(CN4CCC(C(F)(F)F)C4)cc3OC)noc2cc1Nc1cc(C2CC2)n[nH]1 (centres unmarked) [Example 205, N-{6-[(3-cyclopropyl-1H-pyrazol-5-yl)amino]-5-methoxy-1,2-benzoxazol-3-yl}-2,6-dimethoxy-4-{[3-(trifluoromethyl)pyrrolidin-1-yl]methyl}benzene-1-sulfonamide] | 1.4 | 6
2 | COc1cc2c(NS(=O)(=O)c3c(OC)cc(CN4CCCC4(C)C)cc3OC)noc2cc1Nc1cc(C2CC2)n[nH]1 [Example 206, N-{6-[(3-cyclopropyl-1H-pyrazol-5-yl)amino]-5-methoxy-1,2-benzoxazol-3-yl}-4-[(2,2-dimethylpyrrolidin-1-yl)methyl]-2,6-dimethoxybenzene-1-sulfonamide] | 4.4 | 28.8
3 | COc1cc2c(NS(=O)(=O)c3c(OC)cc(-c4nccc(N(C)C)n4)cc3OC)noc2cc1Nc1cc(C2CC2)n[nH]1 [Example 216, N-{6-[(3-cyclopropyl-1H-pyrazol-5-yl)amino]-5-methoxy-1,2-benzoxazol-3-yl}-4-[4-(dimethylamino)pyrimidin-2-yl]-2,6-dimethoxybenzene-1-sulfonamide] | 0.2 | 1.6
4 | COc1cc2c(NS(=O)(=O)c3c(OC)cc(-c4cnc(N(C)C)cn4)cc3OC)noc2cc1Nc1cc(C2CC2)n[nH]1 [Example 217, N-{6-[(3-cyclopropyl-1H-pyrazol-5-yl)amino]-5-methoxy-1,2-benzoxazol-3-yl}-4-[5-(dimethylamino)pyrazin-2-yl]-2,6-dimethoxybenzene-1-sulfonamide] | 0.2 | 1.9
5 | COc1cc2c(NS(=O)(=O)c3c(OC)cc(-c4ncc(N(C)C)cn4)cc3OC)noc2cc1Nc1cc(C2CC2)n[nH]1 [Example 218, N-{6-[(3-cyclopropyl-1H-pyrazol-5-yl)amino]-5-methoxy-1,2-benzoxazol-3-yl}-4-[5-(dimethylamino)pyrimidin-2-yl]-2,6-dimethoxybenzene-1-sulfonamide] | 0.1 | 0.4
6 | COc1cc2c(NS(=O)(=O)c3c(OC)cc(-c4ccc(C)nn4)cc3OC)noc2cc1Nc1cc(C2CC2)n[nH]1 [Example 219, N-{6-[(3-cyclopropyl-1H-pyrazol-5-yl)amino]-5-methoxy-1,2-benzoxazol-3-yl}-2,6-dimethoxy-4-(6-methylpyridazin-3-yl)benzene-1-sulfonamide] | 0.2 | 1.9
7 | COc1cc2c(NS(=O)(=O)c3c(OC)cc(-c4cc5n(n4)CCOC5)cc3OC)noc2cc1Nc1cc(C2CC2)n[nH]1 [Example 220, N-{6-[(3-cyclopropyl-1H-pyrazol-5-yl)amino]-5-methoxy-1,2-benzoxazol-3-yl}-4-(6,7-dihydro-4H-pyrazolo[5,1-c][1,4]oxazin-2-yl)-2,6-dimethoxybenzene-1-sulfonamide] | 0.4 | 4
8 | COc1cc2c(NS(=O)(=O)c3c(OC)cc(-c4ncc(C#N)cn4)cc3OC)noc2cc1Nc1cc(C2CC2)n[nH]1 [Example 224, 4-(5-cyanopyrimidine-2-yl)-N-{6-[(3-cyclopropyl-1 H-pyrazol-5-yl)amino]-5-methoxy-1,2-benzoxazol-3-yl}-2,6-dimethoxybenzene-1-sulfonamide] | 1.5 | 7.2
9 | COc1cc2c(NS(=O)(=O)c3c(OC)cc(-c4ncc5c(n4)CN(C)CC5)cc3OC)noc2cc1Nc1cc(C2CC2)n[nH]1 [Example 225, N-{6-[(3-cyclopropyl-1 H-pyrazol-5-yl)amino]-5-methoxy-1,2-benzoxazol-3-yl}-2,6-dimethoxy-4-(7-methyl-5,6,7,8-tetrahydropyrido[3,4-d]pyrimidin-2-yl)benzene-1-sulfonamide] | 0.6 | 7
10 | CCc1cc(Nc2cc3onc(NS(=O)(=O)c4c(OC)cc(-c5nccn5C)cc4OC)c3cc2OC)[nH]n1 [Example 237, N-{6-[(3-ethyl-1H-pyrazol-5-yl)amino]-5-methoxy-1,2-benzoxazol-3-yl}-2,6-dimethoxy-4-(1-methyl-1H-imidazol-2-yl)benzene-1-sulfonamide] | 1.4 | 15.4
